Results reported in PubChem BioAssay (NCI).
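Test compounds were applied to cells in 96-well plates for 48 hours at 5 doses. TGI: concentration producing complete growth inhibition.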

Columns and labels:
Experiment in all cases: NCI tumour cell line growth inhibition, 48 h
UACC-257 melanoma = tested on: UACC-257 melanoma
SK-MEL-5 melanoma = tested on: SK-MEL-5 melanoma
U251 CNS = tested on: U251 CNS
HT29 colon = tested on: HT29 colon
OVCAR-4 ovarian = tested on: OVCAR-4 ovarian
MDA-MB-231 breast = tested on: MDA-MB-231 breast
LOX IMVI melanoma = tested on: LOX IMVI melanoma
CCRF-CEM leukemia = tested on: CCRF-CEM leukemia
A498 renal = tested on: A498 renal
SNB-75 CNS = tested on: SNB-75 CNS

Row | Structure (SMILES) | TGI (UACC-257 melanoma) | TGI (SK-MEL-5 melanoma) | TGI (U251 CNS) | TGI (HT29 colon) | TGI (OVCAR-4 ovarian) | TGI (MDA-MB-231 breast) | TGI (LOX IMVI melanoma) | TGI (CCRF-CEM leukemia) | TGI (A498 renal) | TGI (SNB-75 CNS)
1 | O=c1[nH]c(=O)n(COCCO)cc1-c1ccccc1 | > 100 µM | > 100 µM | > 100 µM | > 100 µM | > 100 µM | > 100 µM | > 100 µM | > 100 µM |  | 
2 | Oc1cccc(-c2cc(=S)ss2)c1 | 28.4 µM | 19.7 µM | 28.5 µM | 55.3 µM | 40.6 µM | 31.5 µM | 33.3 µM |  |  | 
3 | CC(=O)Nc1ccc(S(=O)(=O)/N=c2/sc(S(N)(=O)=O)nn2C)cc1 |  |  | > 100 µM | > 100 µM | > 100 µM | > 100 µM |  |  | > 100 µM | > 100 µM
4 | CCCCc1ccc(Nc2nc(N)c3[nH]cnc3n2)cc1 | 47.4 µM | 30.9 µM | 48 µM | 28.3 µM | 60.4 µM | 39 µM | 33.3 µM | 52.4 µM | 24.2 µM | 
5 | C=CCCCN1C(=O)C2C3c4ccccc4C(C=O)(c4ccccc43)C2C1=O (stereo unspecified) | 28.9 µM | 23.5 µM | 24.9 µM | 27.5 µM | 29.1 µM | 23.5 µM | 22.1 µM | 17.6 µM |  | 
6 | O=C(O)CC(Cc1ccccc1)C(=O)O (stereo unspecified) | > 100 µM | > 100 µM | > 100 µM | > 100 µM | > 100 µM |  | > 100 µM | > 100 µM | > 100 µM | 
7 | CC(C)OCC(O)COc1cc(=O)oc2ccccc12 (stereo unspecified) | > 100 µM | > 100 µM | > 100 µM | > 100 µM | > 100 µM | > 100 µM | > 100 µM | > 100 µM |  | 
8 | CC12CCC3=C(CSC4=C3CSc3ccccc34)C1=CCCC2=O (stereo unspecified) |  | 53 µM | > 100 µM | > 100 µM | 55.6 µM |  | > 100 µM | > 100 µM |  | 
9 | c1ccc2c(c1)N=c1ccccc1=P21c2ccccc2Nc2ccccc21 | 2.73 µM | 0.42 µM | 11.3 µM | 10.1 µM | 19.9 µM |  | 4.96 µM | 0.737 µM | 5.56 µM | 4.67 µM
10 | COc1c2c(cc3oc(=O)ccc13)OC(C)(C)C=C2 | 85.2 µM | 41.8 µM | 78.5 µM | > 125 µM |  | 76.2 µM | 41.8 µM |  |  | 56.6 µM
11 | O=C(OCc1ccccc1[N+](=O)[O-])N1c2ccccc2[C@@]23O[C@]24CCC[C@H]3C#C/C=C\C#C[C@H]14 | > 100 µM | > 100 µM | > 100 µM | > 100 µM | > 100 µM | > 100 µM | > 100 µM | 66.6 µM | > 100 µM | 
12 | CO/C=C(/C(=O)OC)c1ccccc1[C@H]1C[C@@H]1c1ccc(OC)cc1 | 72.8 µM | 26.2 µM | > 100 µM | 38.7 µM | 45 µM | 94.2 µM |  | > 100 µM | > 100 µM | 
13 | COC(=O)[C@@]12CC3CN(Cc4c1[nH]c1ccccc41)C2CC3=O | > 100 µM |  | > 100 µM | > 100 µM | > 100 µM | > 100 µM | > 100 µM | > 100 µM |  | > 100 µM
